Measured values as given in patent publication US20250052744A1, “Dyes and Uses Thereof” (The University of Liverpool, priority 2021, published 2025).

Columns and labels:
Type in all cases: cell-based
Staphylococcus aureus = assay: Qualitative dye staining on agarose pads (EVOS M7000); design: key to Relative fluorescent intensity: Very high: If the cells looked twice as big in the fluorescent channel, it was marked as having “very high” relative fluorescent intensity; High: if the cells looked bigger in the fluorescent channel, it was marked as having “high” relative fluorescent intensity; Medium: If the cells looked almost the same size in the fluorescent channel and the bright field, it was marked as having “medium” relative fluorescent intensity; Low: If the cells looked smaller in the fluorescent channel as compared to the brightfield but still the whole cell was visible, it was marked as having “low” relative fluorescent intensity; Negligible: If only a few traces of a cell was visible in the fluorescent channel, it was marked as having “negligible” relative fluorescent intensity; details: DiSC3(5) 3 μM, SYBR Green I 10×, SYTO 13 3 μM, FM4-64 15 μM
P. Aeruginosa NCTC 10332 = assay: Bacterial growth with dyes, optical density after 24 hours; details: with 3 μM DiSC3(5) and 3 μM SYTO 13/9
Method: (§1) FIG. 3 is a graph showing is a graph showing the average optical density after 24 hours (OD 600) of P. Aeruginosa NCTC 10332, E. Coli SEC 31, Enterococcus faecium NCTCT 7171, P. Mirabilis NCTC 11938, S. Aureus NCTC 8532 and Klebsiella pneumoniae NCTC 9633, when incubated with DiSC3(5), SYBR Green I and SYTO 13/9 where different concentrations of SYBR Green I were assessed.
as §1, with “FIG. 4” for “FIG. 3”, “of SYTO 13/9” for “of SYBR Green I”
(§2) Comparative experiments were conducted using multiple DNA dyes in low concentration and one DNA at different (and higher) concentration in order to establish whether increasing DNA dye concentration would affect bacterial growth and hinder the differentiation of bacterial strains.
(§3) Experiments were conducted which were similar to Example 1.
(§4) In one experiment, 3 μM of DiSC3(5) and 3 μM of SYTO 13/9 was assessed with CYBR Green I at the following concentrations: 1× average, 3× average, 10× average, 30 average and 100× average.
(§5) In another experiment, 3 μM of DiSC3(5) and 10× of CYBR Green I was assessed with SYTO 13/9 at the following concentrations: 1 μM average, 3 μM average and 10 μM average.

P. Mirabilis NCTC 11938 = assay: as above; details: with 3 μM DiSC3(5) and 3 μM SYTO 13/9
Method: as §1
as §1, with “FIG. 4” for “FIG. 3”, “of SYTO 13/9” for “of SYBR Green I”
as §2, §3, §4, §5

[1] = Table 6 thresholds, Staphylococcus aureus
[2] = Table 7 commercial strain S. Aureus NCTC 9369
[3] = Table 7 commercial strain S. aureus NCTC 8532
[4] = Table 8 sample Staphylococcus aureus (041)
[5] = Table 8 sample Staphylococcus aureus (042)
[6] = Table 8 sample Staphylococcus aureus (043)

Row | SMILES | Percentage of cells stained (Staphylococcus aureus; [1]) | Relative fluorescent intensity (Staphylococcus aureus; [1]) | Percentage of cells stained (Staphylococcus aureus; [2]) | Relative fluorescent intensity (Staphylococcus aureus; [2]) | Percentage of cells stained (Staphylococcus aureus; [3]) | Relative fluorescent intensity (Staphylococcus aureus; [3]) | Percentage of cells stained (Staphylococcus aureus; [4]) | Relative fluorescent intensity (Staphylococcus aureus; [4]) | Percentage of cells stained (Staphylococcus aureus; [5]) | Relative fluorescent intensity (Staphylococcus aureus; [5]) | Percentage of cells stained (Staphylococcus aureus; [6]) | Relative fluorescent intensity (Staphylococcus aureus; [6]) | other results
1 | CCCN1C(=CC=CC=Cc2sc3ccccc3[n+]2CCC)Sc2ccccc21.[I-] [DiSC3(5), 3,3′-Dipropylthiadicarbocyanine Iodide] | Almost all | high and High | Almost all | High | Almost all | High | Almost all | High | Almost all | High | Almost all | High | 
2 | CCN(CC)c1ccc(C=CC=CC=Cc2cc[n+](CCC[N+](CC)(CC)CC)cc2)cc1.[Br-].[Br-] [FM 4-64, N-(3-Triethylammoniumpropyl)-4-(6-(4-(Diethylamino) Phenyl) Hexatrienyl) Pyridinium Dibromide] | Almost all | Medium-high | Almost all | High | Almost all | Medium | Almost all | High | Almost all | Medium | Almost all | Medium | 
3 | CCCN(CCCN(C)C)c1cc(/C=C2/Sc3ccccc3N2C)c2ccccc2[n+]1-c1ccccc1 [SYBR Green I, N′,N′-dimethyl-N-[4-[(E)-(3-methyl-1,3-benzothiazol-2-ylidene)methyl]-1-phenylquinolin-1-ium-2-yl]-N-propylpropane-1,3-diamine] | Almost all | high | Almost all | High | Almost all | High | Almost all | High | Almost all | High | Almost all | High | Relative fluorescent intensity (Staphylococcus aureus; Table 6 thresholds, Staphylococcus aureus, listed as SYBR Green): High; average optical density after 24 hours (OD 600) (P. Aeruginosa NCTC 10332; SYBR Green I 1x): 5.785; average optical density after 24 hours (OD 600) (P. Aeruginosa NCTC 10332; SYBR Green I 3x): 5.785; average optical density after 24 hours (OD 600) (P. Aeruginosa NCTC 10332; SYBR Green I 10x): 2.968; average optical density after 24 hours (OD 600) (P. Aeruginosa NCTC 10332; SYBR Green I 30x): 3.113; average optical density after 24 hours (OD 600) (P. Aeruginosa NCTC 10332; SYBR Green I 100x): 2.39; average optical density after 24 hours (OD 600) (P. Mirabilis NCTC 11938; SYBR Green I 1x): 5.785; average optical density after 24 hours (OD 600) (P. Mirabilis NCTC 11938; SYBR Green I 3x): 5.785; average optical density after 24 hours (OD 600) (P. Mirabilis NCTC 11938; SYBR Green I 10x): 4.635; average optical density after 24 hours (OD 600) (P. Mirabilis NCTC 11938; SYBR Green I 30x): 4.044; average optical density after 24 hours (OD 600) (P. Mirabilis NCTC 11938; SYBR Green I 100x): 0.001
